Key:
Test in all cases: drug sensitivity score (DSS), CellTox Green (DSS (AUC-based score)); higher = stronger drug effect (viability inhibition or cytotoxicity); extreme values may be limits of the assay
Settings in all cases: incubation time: 72 h
BT-474 = system: BT-474
Summary of the method: (§1)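 Breast cancer cell lines were seeded in 20 µl suspension into 384-well plates already holding compound and incubated for 72 h. Each compound was tested at 5 concentrations in 10-fold steps across its own 10,000-fold range. Plates were normalised to 0.1 % DMSO and a positive kill control after CellTox Green and then CellTiter-Glo readings. The area under the fitted dose-response curve served as the basis for the drug sensitivity score.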

BT-549 = system: BT-549
Summary of the method: as §1

CAL-51 = system: CAL-51
Summary of the method: as §1

CAL-85-1 = system: CAL-85-1
Summary of the method: as §1

DU-4475 = system: DU-4475
Summary of the method: as §1

HCC1143 = system: HCC1143
Summary of the method: as §1

HCC1599 = system: HCC1599
Summary of the method: as §1

HCC1937 = system: HCC1937
Summary of the method: as §1

HDQ-P1 = system: HDQ-P1
Summary of the method: as §1

Hs578T = system: Hs578T
Summary of the method: as §1

MCF-10A = system: MCF-10A
Summary of the method: as §1

MDA-MB-231 = system: MDA-MB-231
Summary of the method: as §1

MDA-MB-436 = system: MDA-MB-436
Summary of the method: as §1

MDA-MB-453 = system: MDA-MB-453
Summary of the method: as §1

MDA-MB-468 = system: MDA-MB-468
Summary of the method: as §1

MFM-223 = system: MFM-223
Summary of the method: as §1

`COC(=O)c1ccc2c(c1)NC(=O)/C2=C(\Nc1ccc(N(C)C(=O)CN2CCN(C)CC2)cc1)c1ccccc1` [Nintedanib] was tested, and the drug sensitivity score (BT-474) was 6.74, the drug sensitivity score (BT-549) was 2.06 and the drug sensitivity score (CAL-51) was 6.03. For the same compound, the drug sensitivity score (CAL-85-1) was 0, the drug sensitivity score (DU-4475) was 0 and the drug sensitivity score (HCC1143) was 0. For the same compound, the drug sensitivity score (HCC1599) was 0, the drug sensitivity score (HCC1937) was 7.85 and the drug sensitivity score (HDQ-P1) was 0. The drug sensitivity score (Hs578T) was 0, the drug sensitivity score (MCF-10A) was 1.89 and the drug sensitivity score (MDA-MB-231) was 7.47. It also gave a drug sensitivity score (MDA-MB-436) of 1.22, a drug sensitivity score (MDA-MB-453) of 0 and a drug sensitivity score (MDA-MB-468) of 2.7. For the same compound, the drug sensitivity score (MFM-223) was 0.
In the case of `CNC(=O)c1cc(Oc2ccc(NC(=O)Nc3ccc(Cl)c(C(F)(F)F)c3)c(F)c2)ccn1` [Regorafenib], the drug sensitivity score (BT-474) is reported as 0, the drug sensitivity score (BT-549) is reported as 0 and the drug sensitivity score (CAL-51) is reported as 0. The drug sensitivity score (CAL-85-1) was 0, the drug sensitivity score (DU-4475) was 0 and the drug sensitivity score (HCC1143) was 0. The drug sensitivity score (HCC1599) was 0, the drug sensitivity score (HCC1937) was 3.47 and the drug sensitivity score (HDQ-P1) was 0. For the same compound, the drug sensitivity score (Hs578T) was 0, the drug sensitivity score (MCF-10A) was 0 and the drug sensitivity score (MDA-MB-231) was 0. For the same compound, the drug sensitivity score (MDA-MB-436) was 0, the drug sensitivity score (MDA-MB-453) was 0 and the drug sensitivity score (MDA-MB-468) was 0. For the same compound, the drug sensitivity score (MFM-223) was 0.
Work on `CCOC(=O)CCNc1cc(N2CCc3ccccc3CC2)nc(-c2ccccn2)n1` [GSK-J4] yielded a drug sensitivity score (BT-474) of 19, a drug sensitivity score (BT-549) of 7.69 and a drug sensitivity score (CAL-51) of 11.4. For the same compound, the drug sensitivity score (CAL-85-1) was 16.5, the drug sensitivity score (DU-4475) was 2.65 and the drug sensitivity score (HCC1143) was 18.6. The drug sensitivity score (HCC1599) was 2.51, the drug sensitivity score (HCC1937) was 7.05 and the drug sensitivity score (HDQ-P1) was 11.6. For the same compound, the drug sensitivity score (Hs578T) was 20.6, the drug sensitivity score (MCF-10A) was 8.52 and the drug sensitivity score (MDA-MB-231) was 11.1. It also gave a drug sensitivity score (MDA-MB-436) of 7.09, a drug sensitivity score (MDA-MB-453) of 7.34 and a drug sensitivity score (MDA-MB-468) of 12.3. The drug sensitivity score (MFM-223) was 8.73.
`C=C1C[C@@H]2[C@H](CC[C@]3(C)C(=O)CC[C@@H]23)[C@@]2(C)C=CC(=O)C=C12` [Exemestane] showed a drug sensitivity score (BT-474) of 0, a drug sensitivity score (BT-549) of 0 and a drug sensitivity score (CAL-51) of 0. The drug sensitivity score (CAL-85-1) was 1.08, the drug sensitivity score (DU-4475) was 0 and the drug sensitivity score (HCC1143) was 0. It also gave a drug sensitivity score (HCC1599) of 0, a drug sensitivity score (HCC1937) of 0 and a drug sensitivity score (HDQ-P1) of 3.28. It also gave a drug sensitivity score (Hs578T) of 0, a drug sensitivity score (MCF-10A) of 0 and a drug sensitivity score (MDA-MB-231) of 0. The drug sensitivity score (MDA-MB-436) was 0, the drug sensitivity score (MDA-MB-453) was 0 and the drug sensitivity score (MDA-MB-468) was 0. The drug sensitivity score (MFM-223) was 0.
For `N#Cc1ccc(COC[C@H]2O[C@@H](n3c(NCc4ccc(Cl)c(Cl)c4)nc4c(N)ncnc43)[C@H](O)[C@@H]2O)cc1`, the drug sensitivity score (BT-474) was 0, the drug sensitivity score (BT-549) was 0 and the drug sensitivity score (CAL-51) was 0. The drug sensitivity score (CAL-85-1) was 2.89, the drug sensitivity score (DU-4475) was 0 and the drug sensitivity score (HCC1143) was 0. The drug sensitivity score (HCC1599) was 0, the drug sensitivity score (HCC1937) was 0 and the drug sensitivity score (HDQ-P1) was 0. It also gave a drug sensitivity score (Hs578T) of 0, a drug sensitivity score (MCF-10A) of 0 and a drug sensitivity score (MDA-MB-231) of 0. It also gave a drug sensitivity score (MDA-MB-436) of 0, a drug sensitivity score (MDA-MB-453) of 0 and a drug sensitivity score (MDA-MB-468) of 0. It also gave a drug sensitivity score (MFM-223) of 3.38.
Work on `c1ccc2c(CCNc3ccc(Nc4ccncc4)cc3)c[nH]c2c1` [Serdemetan] yielded a drug sensitivity score (BT-474) of 0, a drug sensitivity score (BT-549) of 0 and a drug sensitivity score (CAL-51) of 4.55. The drug sensitivity score (CAL-85-1) was 0, the drug sensitivity score (DU-4475) was 1.51 and the drug sensitivity score (HCC1143) was 0. The drug sensitivity score (HCC1599) was 0, the drug sensitivity score (HCC1937) was 0 and the drug sensitivity score (HDQ-P1) was 0. The drug sensitivity score (Hs578T) was 0, the drug sensitivity score (MCF-10A) was 0 and the drug sensitivity score (MDA-MB-231) was 2.18. For the same compound, the drug sensitivity score (MDA-MB-436) was 0, the drug sensitivity score (MDA-MB-453) was 0 and the drug sensitivity score (MDA-MB-468) was 0. The drug sensitivity score (MFM-223) was 1.92.
`CNC(=O)c1cccc(-c2ccc3c(N4CCOC[C@@H]4C)nc(N4CCOC[C@@H]4C)nc3n2)c1` [AZD2014] was tested, and the drug sensitivity score (BT-474) was 0, the drug sensitivity score (BT-549) was 0 and the drug sensitivity score (CAL-51) was 0. It also gave a drug sensitivity score (CAL-85-1) of 0, a drug sensitivity score (DU-4475) of 0 and a drug sensitivity score (HCC1143) of 0. The drug sensitivity score (HCC1599) was 0, the drug sensitivity score (HCC1937) was 0 and the drug sensitivity score (HDQ-P1) was 0. The drug sensitivity score (Hs578T) was 0, the drug sensitivity score (MCF-10A) was 0 and the drug sensitivity score (MDA-MB-231) was 0. The drug sensitivity score (MDA-MB-436) was 0, the drug sensitivity score (MDA-MB-453) was 0 and the drug sensitivity score (MDA-MB-468) was 0. For the same compound, the drug sensitivity score (MFM-223) was 3.63.
In the case of `Nc1cc(C(F)(F)F)c(-c2cc(N3CCOCC3)nc(N3CCOCC3)n2)cn1` [Buparlisib], the drug sensitivity score (BT-474) is reported as 3.4, the drug sensitivity score (BT-549) is reported as 1.91 and the drug sensitivity score (CAL-51) is reported as 6.04. For the same compound, the drug sensitivity score (CAL-85-1) was 0, the drug sensitivity score (DU-4475) was 0 and the drug sensitivity score (HCC1143) was 0. It also gave a drug sensitivity score (HCC1599) of 0, a drug sensitivity score (HCC1937) of 0 and a drug sensitivity score (HDQ-P1) of 0. The drug sensitivity score (Hs578T) was 2.89, the drug sensitivity score (MCF-10A) was 0.18 and the drug sensitivity score (MDA-MB-231) was 7.38. It also gave a drug sensitivity score (MDA-MB-436) of 0, a drug sensitivity score (MDA-MB-453) of 0 and a drug sensitivity score (MDA-MB-468) of 0. The drug sensitivity score (MFM-223) was 0.
Compound `Cc1cc(Nc2cc(CN3CCOCC3)c3nc(C)c(Cc4ccc(Cl)cc4F)n3n2)n[nH]1` [Gandotinib] has a drug sensitivity score (BT-474) of 0, a drug sensitivity score (BT-549) of 0 and a drug sensitivity score (CAL-51) of 7.6. The drug sensitivity score (CAL-85-1) was 3.97, the drug sensitivity score (DU-4475) was 0 and the drug sensitivity score (HCC1143) was 0. For the same compound, the drug sensitivity score (HCC1599) was 0, the drug sensitivity score (HCC1937) was 0 and the drug sensitivity score (HDQ-P1) was 0. It also gave a drug sensitivity score (Hs578T) of 7.9, a drug sensitivity score (MCF-10A) of 0 and a drug sensitivity score (MDA-MB-231) of 0. The drug sensitivity score (MDA-MB-436) was 0.139, the drug sensitivity score (MDA-MB-453) was 0 and the drug sensitivity score (MDA-MB-468) was 3.86. It also gave a drug sensitivity score (MFM-223) of 0.
